Assay results as given in patent publication US20250295646A1, “METHODS OF USE OF T-TYPE CALCIUM CHANNEL MODULATORS” (Praxis Precision Medicines, Inc., priority 2022, published 2025).

Test system: adult patients with essential tremor
Assay: Example 16: video-reviewed TETRAS performance subscale and upper limb score; on TETRAS Performance Subscale Total Score by Video Review, Change from Baseline, Mean (SD): test concentration or dose not given here; on TETRAS Performance Subscale Total Score by Video Review, Change from Baseline, Median: test concentration or dose not given here; on TETRAS Performance Subscale Total Score by Video Review, Mean (SD): test concentration or dose not given here; on TETRAS Performance Subscale Total Score by Video Review, Median: test concentration or dose not given here
Type: in vivo, human
Source text: Video-reviewed TETRAS Analyses Video reviewed TETRAS assessments were generally consistent with those conducted at the clinic. Video reviewed TETRAS performance subscale total scores are summarized for Part A, the open-label titration phase of Part B, and the randomized withdrawal phase of Part B in Table 42, Table 43, and Table 44.
Video reviewed upper limb score values were generally consistent with those conducted at the clinic and are summarized for Part A, the open-label titration phase of Part B, and the randomized withdrawal phase of Part B in Table 45, Table 46, and Table 47, respectively.

[1] = Day 21, Part B Open-Label Titration Phase (N = 17)
[2] = Day 21, Part B, Formula (I) arm (N = 6)
[3] = Day 42 6 hours Post - dose (Randomization Baseline), Part B, Formula (I) arm (N = 6)
[4] = Day 42, 6 hours Post - dose, Part B Open-Label Titration Phase (N = 17)
[5] = Day 42, 6 hours Post - dose, Part B, Formula (I) arm (N = 6)
[6] = Day 42, Pre - dose, Part B Open-Label Titration Phase (N = 17)
[7] = Day 42, Pre - dose, Part B, Formula (I) arm (N = 6)
[8] = Day 56, Part B, Formula (I) arm (N = 6)
[9] = Day 70, Part B, Formula (I) arm (N = 6)

CC(C)(C)NC(=O)CN1CCC(CNC(=O)c2cc(F)cc(Cl)c2)CC1 [compound of formula (I), N-((1-(2-(tert-butylamino)-2-oxoethyl)piperidin-4-yl)methyl)-3-chloro-5-fluorobenzamide]
TETRAS Upper Limb Score by Video Review, Mean (SD) [1]: 9.63 (2.478)
TETRAS Upper Limb Score by Video Review, Median [1]: 10.00
TETRAS Upper Limb Score by Video Review, Percentage Change from Baseline in Tremor Amplitude, Mean (SD) [1]: −9.74 (24.458) %
TETRAS Upper Limb Score by Video Review, Percentage Change from Baseline in Tremor Amplitude, Median [1]: −9.15%
TETRAS Performance Subscale Total Score by Video Review, Change from Baseline, Mean (SD) [2]: 0.08 (2.396)
TETRAS Performance Subscale Total Score by Video Review, Change from Baseline, Median [2]: 0.50
TETRAS Performance Subscale Total Score by Video Review, Mean (SD) [2]: 22.42 (3.277)
TETRAS Performance Subscale Total Score by Video Review, Median [2]: 22.00
TETRAS Performance Subscale Total Score by Video Review, Percentage Change from Baseline in Tremor Amplitude, Mean (SD) [2]: 0.67 (15.665) %
TETRAS Performance Subscale Total Score by Video Review, Percentage Change from Baseline in Tremor Amplitude, Median [2]: 3.53%
TETRAS Upper Limb Score by Video Review, Change from Baseline, Mean (SD) [2]: 0.17 (1.211)
TETRAS Upper Limb Score by Video Review, Change from Baseline, Median [2]: 0.00
TETRAS Upper Limb Score by Video Review, Mean (SD) [2]: 10.08 (0.861)
TETRAS Upper Limb Score by Video Review, Median [2]: 10.00
TETRAS Upper Limb Score by Video Review, Percentage Change from Baseline in Tremor Amplitude, Mean (SD) [2]: 2.64 (20.424) %
TETRAS Upper Limb Score by Video Review, Percentage Change from Baseline in Tremor Amplitude, Median [2]: 0.00%
TETRAS Performance Subscale Total Score by Video Review, Mean (SD) [3]: 19.92 (5.229)
TETRAS Performance Subscale Total Score by Video Review, Median [3]: 20.25
TETRAS Upper Limb Score by Video Review, Mean (SD) [3]: 8.42 (2.417)
TETRAS Upper Limb Score by Video Review, Median [3]: 9.25
TETRAS Performance Subscale Total Score by Video Review, Change from Baseline, Mean (SD) [4]: −3.18 (3.133)
TETRAS Performance Subscale Total Score by Video Review, Change from Baseline, Median [4]: −3.50
TETRAS Performance Subscale Total Score by Video Review, Mean (SD) [4]: 20.32 (7.564)
TETRAS Performance Subscale Total Score by Video Review, Median [4]: 20.00
TETRAS Performance Subscale Total Score by Video Review, Percentage Change from Baseline in Tremor Amplitude, Mean (SD) [4]: −18.90 (18.026) %
TETRAS Performance Subscale Total Score by Video Review, Percentage Change from Baseline in Tremor Amplitude, Median [4]: −22.26%
TETRAS Upper Limb Score by Video Review, Change from Baseline, Mean (SD) [4]: −1.77 (1.633)
TETRAS Upper Limb Score by Video Review, Change from Baseline, Median [4]: −1.50
TETRAS Upper Limb Score by Video Review, Mean (SD) [4]: 8.95 (2.902)
TETRAS Upper Limb Score by Video Review, Median [4]: 9.00
TETRAS Upper Limb Score by Video Review, Percentage Change from Baseline in Tremor Amplitude, Mean (SD) [4]: −26.26 (22.691) %
TETRAS Upper Limb Score by Video Review, Percentage Change from Baseline in Tremor Amplitude, Median [4]: −25.01%
TETRAS Performance Subscale Total Score by Video Review, Change from Baseline, Mean (SD) [5]: −2.42 (3.484)
TETRAS Performance Subscale Total Score by Video Review, Change from Baseline, Median [5]: −3.00
TETRAS Performance Subscale Total Score by Video Review, Percentage Change from Baseline in Tremor Amplitude, Mean (SD) [5]: −14.27 (20.962) %
TETRAS Performance Subscale Total Score by Video Review, Percentage Change from Baseline in Tremor Amplitude, Median [5]: −19.21%
TETRAS Upper Limb Score by Video Review, Change from Baseline, Mean (SD) [5]: −1.50 (2.025)
TETRAS Upper Limb Score by Video Review, Change from Baseline, Median [5]: −1.25
TETRAS Upper Limb Score by Video Review, Percentage Change from Baseline in Tremor Amplitude, Mean (SD) [5]: −21.52 (28.723) %
TETRAS Upper Limb Score by Video Review, Percentage Change from Baseline in Tremor Amplitude, Median [5]: −21.24%
TETRAS Performance Subscale Total Score by Video Review, Change from Baseline, Mean (SD) [6]: −2.32 (2.272)
TETRAS Performance Subscale Total Score by Video Review, Change from Baseline, Median [6]: −2.50
TETRAS Performance Subscale Total Score by Video Review, Mean (SD) [6]: 21.18 (7.916)
TETRAS Performance Subscale Total Score by Video Review, Median [6]: 19.50
TETRAS Performance Subscale Total Score by Video Review, Percentage Change from Baseline in Tremor Amplitude, Mean (SD) [6]: −14.41 (13.541) %
TETRAS Performance Subscale Total Score by Video Review, Percentage Change from Baseline in Tremor Amplitude, Median [6]: −16.46%
TETRAS Upper Limb Score by Video Review, Change from Baseline, Mean (SD) [6]: −1.41 (1.429)
TETRAS Upper Limb Score by Video Review, Change from Baseline, Median [6]: −1.00
TETRAS Upper Limb Score by Video Review, Mean (SD) [6]: 9.32 (2.943)
TETRAS Upper Limb Score by Video Review, Median [6]: 9.50
TETRAS Upper Limb Score by Video Review, Percentage Change from Baseline in Tremor Amplitude, Mean (SD) [6]: −21.20 (19.707) %
TETRAS Upper Limb Score by Video Review, Percentage Change from Baseline in Tremor Amplitude, Median [6]: −17.46%
TETRAS Performance Subscale Total Score by Video Review, Change from Baseline, Mean (SD) [7]: −1.33 (2.338)
TETRAS Performance Subscale Total Score by Video Review, Change from Baseline, Median [7]: −1.00
TETRAS Performance Subscale Total Score by Video Review, Mean (SD) [7]: 21.00 (5.263)
TETRAS Performance Subscale Total Score by Video Review, Median [7]: 22.25
TETRAS Performance Subscale Total Score by Video Review, Percentage Change from Baseline in Tremor Amplitude, Mean (SD) [7]: −8.23 (14.278) %
TETRAS Performance Subscale Total Score by Video Review, Percentage Change from Baseline in Tremor Amplitude, Median [7]: −6.88%
TETRAS Upper Limb Score by Video Review, Change from Baseline, Mean (SD) [7]: −0.75 (0.935)
TETRAS Upper Limb Score by Video Review, Change from Baseline, Median [7]: −0.50
TETRAS Upper Limb Score by Video Review, Mean (SD) [7]: 9.17 (1.862)
TETRAS Upper Limb Score by Video Review, Median [7]: 9.25
TETRAS Upper Limb Score by Video Review, Percentage Change from Baseline in Tremor Amplitude, Mean (SD) [7]: −12.31 (14.247) %
TETRAS Upper Limb Score by Video Review, Percentage Change from Baseline in Tremor Amplitude, Median [7]: −9.15%
TETRAS Performance Subscale Total Score by Video Review, Change from Baseline, Mean (SD) [8]: −1.33 (4.771)
TETRAS Performance Subscale Total Score by Video Review, Change from Baseline, Median [8]: −0.50
TETRAS Performance Subscale Total Score by Video Review, Change from Randomization, Mean (SD) [8]: 1.08 (2.311)
TETRAS Performance Subscale Total Score by Video Review, Change from Randomization, Median [8]: 0.75
TETRAS Performance Subscale Total Score by Video Review, Mean (SD) [8]: 21.00 (6.542)
TETRAS Performance Subscale Total Score by Video Review, Median [8]: 21.75
TETRAS Performance Subscale Total Score by Video Review, Percentage Change from Baseline in Tremor Amplitude, Mean (SD) [8]: −6.83 (27.753) %
TETRAS Performance Subscale Total Score by Video Review, Percentage Change from Baseline in Tremor Amplitude, Median [8]: −3.23%
TETRAS Performance Subscale Total Score by Video Review, Percentage Change from Randomization in Tremor Amplitude, Mean (SD) [8]: 6.68 (14.469) %
TETRAS Performance Subscale Total Score by Video Review, Percentage Change from Randomization in Tremor Amplitude, Median [8]: 5.12%
TETRAS Upper Limb Score by Video Review, Change from Baseline, Mean (SD) [8]: −0.75 (2.115)
TETRAS Upper Limb Score by Video Review, Change from Baseline, Median [8]: −0.25
TETRAS Upper Limb Score by Video Review, Change from Randomization, Mean (SD) [8]: 0.75 (0.612)
TETRAS Upper Limb Score by Video Review, Change from Randomization, Median [8]: 0.50
TETRAS Upper Limb Score by Video Review, Mean (SD) [8]: 9.17 (2.658)
TETRAS Upper Limb Score by Video Review, Median [8]: 10.00
TETRAS Upper Limb Score by Video Review, Percentage Change from Baseline in Tremor Amplitude, Mean (SD) [8]: −10.13 (31.224) %
TETRAS Upper Limb Score by Video Review, Percentage Change from Baseline in Tremor Amplitude, Median [8]: −4.57%
TETRAS Upper Limb Score by Video Review, Percentage Change from Randomization in Tremor Amplitude, Mean (SD) [8]: 12.91 (10.020) %
TETRAS Upper Limb Score by Video Review, Percentage Change from Randomization in Tremor Amplitude, Median [8]: 9.15%
TETRAS Performance Subscale Total Score by Video Review, Change from Baseline, Mean (SD) [9]: 0.60 (2.104)
TETRAS Performance Subscale Total Score by Video Review, Change from Baseline, Median [9]: 0.50
TETRAS Performance Subscale Total Score by Video Review, Change from Randomization, Mean (SD) [9]: 3.60 (3.343)
TETRAS Performance Subscale Total Score by Video Review, Change from Randomization, Median [9]: 4.50
TETRAS Performance Subscale Total Score by Video Review, Mean (SD) [9]: 22.00 (4.962)
TETRAS Performance Subscale Total Score by Video Review, Median [9]: 22.50
TETRAS Performance Subscale Total Score by Video Review, Percentage Change from Baseline in Tremor Amplitude, Mean (SD) [9]: 3.98 (13.794) %
TETRAS Performance Subscale Total Score by Video Review, Percentage Change from Baseline in Tremor Amplitude, Median [9]: 3.53%
TETRAS Performance Subscale Total Score by Video Review, Percentage Change from Randomization in Tremor Amplitude, Mean (SD) [9]: 21.30 (20.204) %
TETRAS Performance Subscale Total Score by Video Review, Percentage Change from Randomization in Tremor Amplitude, Median [9]: 27.66%
TETRAS Upper Limb Score by Video Review, Change from Baseline, Mean (SD) [9]: 0.30 (0.908)
TETRAS Upper Limb Score by Video Review, Change from Baseline, Median [9]: 0.50
TETRAS Upper Limb Score by Video Review, Change from Randomization, Mean (SD) [9]: 1.80 (2.139)
TETRAS Upper Limb Score by Video Review, Change from Randomization, Median [9]: 2.50
TETRAS Upper Limb Score by Video Review, Mean (SD) [9]: 9.80 (1.924)
TETRAS Upper Limb Score by Video Review, Median [9]: 9.50
TETRAS Upper Limb Score by Video Review, Percentage Change from Baseline in Tremor Amplitude, Mean (SD) [9]: 5.17 (15.525) %
TETRAS Upper Limb Score by Video Review, Percentage Change from Baseline in Tremor Amplitude, Median [9]: 9.15%
TETRAS Upper Limb Score by Video Review, Percentage Change from Randomization in Tremor Amplitude, Mean (SD) [9]: 25.58 (31.214) %
TETRAS Upper Limb Score by Video Review, Percentage Change from Randomization in Tremor Amplitude, Median [9]: 38.10%
